These results are taken from patent US9283277B2, “Methods and compositions for the treatment of obesity” (Children's Medical Center Corporation, priority 2008, dated 2016).

Holding throughout (format): in vivo
Series [1] concerns HFD-fed obese C57BL/6 mice. The series is described as follows: PBA pretreatment and leptin in HFD-fed obese mice (bodyweight, metabolic cage, DEXA). The protocol:
(§1) C57BL/6 mice that were kept on high fat diet feeding for 25 weeks were either treated with vehicle or PBA (1 g/kg/day) for 10 days. Following the pretreatment period mice were given daily leptin (5 mg/kg/day, IP) treatment. (a) Bodyweight (g), (b) % decrease in the bodyweight, and (c) 24 hour food intake (g) during the 30 days of leptin administration. Metabolic cage analysis was performed after 25 days of treatment (d) O2 consumption (ml/kg/hr), (e) CO2 production (ml/kg/hr), (f) X-axis ambulatory activity, (g) Respiratory exchange ratio (VCO2/VO2), (h) Heat generation (kcal/hr). Dexa scan analysis of (i) Lean body mass (g), (j) Fat % and (k) Total fat amount (g). C57BL6 mice were fed a HFD for a period of 25 weeks and then either treated with PBA (1 g/kg) or VEH for 16 days. (1) PERK phosphorylation in the hypothalamus extracts. (m) Leptin-stimulated Stat3^Tyr705 phosphorylation in the VEH and PBA-treated HFD-fed mice. (n) C57BL6 mice were fed a ND for a period of 25 weeks and then either treated with PBA (1 g/kg) or VEH for 16 days. Following the treatment period mice were starved for six hours and subsequently injected with leptin (IP, 1 mg/kg). Stat3^Tyr705 phoshorylation and total Stat levels were examined in the hypothalamus extracts. (n=6 in each group). Error bars are ±S.E.M., P values are determined by Student's t-test. (*p<0.05, **p<0.01, ***p<0.001)
Obesity owing to a high fat diet is fundamentally different from that seen in ob/ob mice in that it occurs in the face of high leptin levels. To determine whether PBA also sensitizes HFD-fed obese mice to leptin, mice that were kept on HFD for 25 weeks were pretreated with vehicle or PBA for 10 days, and then given leptin treatment (5 mg/kg/day). Leptin administration to the vehicle-treated group led to an acute weight loss, which was rapidly regained (FIG. 3a). By the end of treatment period, leptin created a slight but significant change in the body weight in the vehicle-treated group by reducing it from 42.42±0.27 g to 40.78±0.55 (3.8±0.9% decrease in bodyweight) (FIG. 3a,b). […] During the course of the experiment we placed the vehicle and PBA-treated groups in metabolic cages to investigate metabolic homeostasis in detail. […] Following the metabolic cage analysis we performed DEXA scan to analyze whole body fat content.

In series [2] the test system is hypothalamus of lean mice. The series is described as follows: Tunicamycin infusion to the third ventricle of lean mice. The note with it: leptin 1 mg/kg IP 5½ hours after third ventricle tunicamycin or vehicle infusion, 30 minutes after leptin. An excerpt: Having shown that ER stress is increased in the hypothalamus of HFD-fed mice and causes leptin resistance in the cellular systems, we sought to investigate whether leptin action could also be blocked by directly inducing ER stress in brains of lean mice.
Next, we investigated the expression patterns of leptin resistance markers such as neuropeptide Y (NPY) and agouti related peptide (AgRP) in the vehicle- and tunicamycin-infused mice. […] In addition, to exclude the possibility that tunicamycin infusion leads to a decay in mRNA degradation of NPY and AgRP due to a possible toxic effect, we analyzed mRNA levels of IR and insulin receptor substrate 1 (IRS1).
To assess whether increased ER stress and activation of UPR signaling would create leptin resistance and block the leptin-stimulated Stat3 activation in the hypothalamus, leptin (1 mg/kg/day) was intraperitoneally administered 5½ hours after tunicamycin infusion. The experiment was ended by dissection of the hypothalami 30 minutes after leptin administration. […] In contrast, administration of tunicamycin to the third ventricle and creation of ER stress, in complete accordance with our data obtained from 293 cells, blocked activation of Stat3 in the hypothalamus (data not shown).

Series [3] relates to blood brain barrier. The series is described as follows: Blood brain barrier permeability with Fluoro-gold in PBA-treated HFD-fed mice. The note with it: HFD-fed wt male mice; PBA 12 days; Fluoro-gold IP 15 mg/kg. The protocol:
Leptin resistance in obesity arises due to both impairment of leptin action in the hypothalamus and defects in the transport of leptin in the blood brain barrier^14,42. […] Three days after the injections, mice were anesthetized and perfused with saline and then 4% paraformaldehyde. After the fixation, brains were removed. Following the necessary further fixation and sectioning, Fluoro-gold staining was performed on the whole brain slices. […] Reactivity against the Fluoro-gold is not different between the vehicle and PBA-treated groups. Fluoro-gold-labeled neurons should be present in the areas like ventro-medial hypothalamus (VMH), dorso-medial hypothalamus (DMH) and lateral hypothalamic area (LHA), if the BBB permeability is perturbed. […] (data not shown)

Series [4] deals with HFD-fed obese mice. Description: PBA alone in HFD-fed or ND-fed mice: bodyweight, hypothalamic PERK and leptin-stimulated Stat3 phosphorylation. As to the method:
as §1
Mice were fed a HFD (60%) for 25 weeks and following an acclimation PBA (1 gr/kg/day) and vehicle treatment was initiated. (a) Bodyweight, (b) % decrease in bodyweight and (c) daily food intake of VEH and PBA-treated HFD-fed obese mice were analyzed during the 16 days of treatment period. (n=5 in each group) Error bars are ±S.E.M., P values are determined by Student's t-test (*p<0.05, **p<0.01, ***p<0.001).
To investigate whether PBA treatment reduces the ER stress, we analyzed the PERK phosphorylation in the HFD-fed mice, which were either treated with VEH or PBA for 16 days. […] To investigate whether leptin-stimulated activation of LepRB signaling is increased in the hypothalamus of the PBA-treated HFD-fed obese mice, we intraperitoneally injected leptin (0.75 mg/kg) following a six-hour fast and analyzed the Stat3^Tyr705 phosphorylation in the hypothalamus extracts of VEH and PBA-treated mice. […] We also analyzed the leptin-stimulated Stat3^Tyr705 phosphorylation in the hypothalamus of the wt mice, which were either treated with vehicle or PBA for 16 days.

[5] abbreviates: mice on HFD 25 weeks, leptin 5 mg/kg/day IP, 30 days, vehicle or PBA (1 g/kg/day) pretreated.
[6] abbreviates: HFD-fed mice, PBA 1 g/kg alone, 16 days, vs VEH.

In the case of “leptin: adipocyte-derived hormone that suppresses appetite”, in series [1] (HFD-fed mice, DEXA scan), the lean mass entry is given as “does not change”. Besides, in series [1] (mice on HFD 25 weeks, before leptin 5 mg/kg/day, vehicle or PBA pretreated 10 days), the initial body weight is 42.42 ± 0.27 g. In series [1] (setting [5]), the “body weight at end of treatment period” value was determined as 40.78 ± 0.55 g and the decrease in bodyweight amounted to 3.8±0.9%. For the same compound, the “Stat3 phosphorylation (activation) in the hypothalamus” value in series [2] is on record as “marked increase”.
As for `O=C(O)CCCc1ccccc1` [PBA, 4-phenyl butyric acid], the “BBB permeability (Fluoro-gold-labeled neurons in VMH, DMH, LHA)” value in series [3] is “not increased”. Also, in series [4] (setting [6]), the body weight entry was “did not reduce”. In addition, the food intake result in series [4] (setting [6]) is listed as “did not reduce”. Besides, the “PERK phosphorylation in the hypothalamus” value in series [4] (HFD-fed obese mice, PBA 1 g/kg, 16 days, vs VEH) is recorded as “marked decrease”. Besides, the “leptin-stimulated Stat3 Tyr705 phosphorylation in hypothalamus” value in series [4] (HFD-fed obese mice, PBA 16 days, leptin 0.75 mg/kg IP after six-hour fast) is on record as “marked up-regulation”; in series [4] (ND-fed lean wt mice, PBA 16 days vs VEH, leptin IP 1 mg/kg) it was “did not cause a higher activation”.
